Test results as given in ChEMBL document CHEMBL1133464, “Ligands for glutamate receptors: design and therapeutic prospects” (J Med Chem, 2000).

Tests used:
[1] = target: Metabotropic glutamate receptor 5 (Homo sapiens, UniProt P41594); test: Agonist potency against cloned metabotropic glutamate receptor 5; type: functional
[2] = target: Metabotropic glutamate receptor 4 (Homo sapiens, UniProt Q14833); test: Agonist potency against cloned human Metabotropic glutamate receptor 4 (mGluR-4); type: functional
[3] = target: Metabotropic glutamate receptor 2 (Homo sapiens, UniProt Q14416); test: Partial agonist potency against cloned Metabotropic glutamate receptor 2; type: functional
[4] = target: Metabotropic glutamate receptor 1 (Homo sapiens, UniProt Q13255); test: Agonist potency against cloned human metabotropic glutamate receptor 1; type: functional
[5] = (§1) Effective concentration against NR1/NR2A receptor
[6] = as §1; remark: listed apart in the source
[7] = as §1; remark: listed apart in the source
[8] = as §1; remark: listed apart in the source

Chain of Metabotropic glutamate receptor 4 (Q14833 whole entry): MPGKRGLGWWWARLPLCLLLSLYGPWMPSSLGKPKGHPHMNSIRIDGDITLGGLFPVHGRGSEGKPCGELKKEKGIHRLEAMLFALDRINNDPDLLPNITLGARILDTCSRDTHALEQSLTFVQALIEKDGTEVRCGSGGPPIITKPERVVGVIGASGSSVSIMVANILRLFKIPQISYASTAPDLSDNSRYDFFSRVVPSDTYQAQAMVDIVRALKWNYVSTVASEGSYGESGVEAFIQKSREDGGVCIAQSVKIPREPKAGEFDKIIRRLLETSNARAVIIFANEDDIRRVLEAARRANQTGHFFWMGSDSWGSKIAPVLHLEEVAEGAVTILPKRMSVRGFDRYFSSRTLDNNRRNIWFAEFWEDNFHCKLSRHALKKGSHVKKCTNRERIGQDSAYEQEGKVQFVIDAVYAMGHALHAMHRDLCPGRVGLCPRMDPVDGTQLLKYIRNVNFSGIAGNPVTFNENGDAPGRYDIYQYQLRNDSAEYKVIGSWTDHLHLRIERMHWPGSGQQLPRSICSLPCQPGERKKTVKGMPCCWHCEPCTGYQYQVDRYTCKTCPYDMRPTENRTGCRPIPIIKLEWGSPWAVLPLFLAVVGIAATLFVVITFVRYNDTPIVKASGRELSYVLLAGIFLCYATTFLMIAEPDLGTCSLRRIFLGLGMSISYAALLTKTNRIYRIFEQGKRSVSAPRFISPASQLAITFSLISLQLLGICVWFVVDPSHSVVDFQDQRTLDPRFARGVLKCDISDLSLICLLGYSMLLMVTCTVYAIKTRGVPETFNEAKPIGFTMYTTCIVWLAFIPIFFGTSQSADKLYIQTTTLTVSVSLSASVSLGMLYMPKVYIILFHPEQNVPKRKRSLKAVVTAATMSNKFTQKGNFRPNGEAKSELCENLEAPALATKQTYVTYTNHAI
Chain of Metabotropic glutamate receptor 2 (Q14416 whole entry): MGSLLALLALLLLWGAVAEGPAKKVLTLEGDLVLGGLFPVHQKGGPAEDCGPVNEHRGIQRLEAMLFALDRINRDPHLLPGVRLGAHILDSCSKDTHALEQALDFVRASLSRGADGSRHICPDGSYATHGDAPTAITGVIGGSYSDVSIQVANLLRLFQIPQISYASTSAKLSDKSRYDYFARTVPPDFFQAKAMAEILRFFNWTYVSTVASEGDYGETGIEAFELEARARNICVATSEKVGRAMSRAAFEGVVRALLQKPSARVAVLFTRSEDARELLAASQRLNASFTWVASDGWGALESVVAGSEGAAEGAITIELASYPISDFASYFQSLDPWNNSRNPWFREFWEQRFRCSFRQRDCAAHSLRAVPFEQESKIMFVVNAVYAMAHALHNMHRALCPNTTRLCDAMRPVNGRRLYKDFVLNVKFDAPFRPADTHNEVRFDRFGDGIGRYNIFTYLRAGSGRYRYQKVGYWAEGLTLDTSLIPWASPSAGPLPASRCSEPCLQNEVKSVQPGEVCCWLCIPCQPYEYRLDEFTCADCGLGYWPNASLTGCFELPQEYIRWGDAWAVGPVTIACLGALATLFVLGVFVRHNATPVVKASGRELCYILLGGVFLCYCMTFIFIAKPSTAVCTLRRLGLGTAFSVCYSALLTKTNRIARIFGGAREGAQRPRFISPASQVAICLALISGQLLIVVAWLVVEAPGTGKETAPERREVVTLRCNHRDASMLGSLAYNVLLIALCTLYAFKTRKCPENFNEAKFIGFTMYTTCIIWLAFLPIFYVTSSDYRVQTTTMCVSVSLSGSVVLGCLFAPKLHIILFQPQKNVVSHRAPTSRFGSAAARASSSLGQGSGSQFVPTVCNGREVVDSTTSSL
Chain of Metabotropic glutamate receptor 1 (Q13255 whole entry): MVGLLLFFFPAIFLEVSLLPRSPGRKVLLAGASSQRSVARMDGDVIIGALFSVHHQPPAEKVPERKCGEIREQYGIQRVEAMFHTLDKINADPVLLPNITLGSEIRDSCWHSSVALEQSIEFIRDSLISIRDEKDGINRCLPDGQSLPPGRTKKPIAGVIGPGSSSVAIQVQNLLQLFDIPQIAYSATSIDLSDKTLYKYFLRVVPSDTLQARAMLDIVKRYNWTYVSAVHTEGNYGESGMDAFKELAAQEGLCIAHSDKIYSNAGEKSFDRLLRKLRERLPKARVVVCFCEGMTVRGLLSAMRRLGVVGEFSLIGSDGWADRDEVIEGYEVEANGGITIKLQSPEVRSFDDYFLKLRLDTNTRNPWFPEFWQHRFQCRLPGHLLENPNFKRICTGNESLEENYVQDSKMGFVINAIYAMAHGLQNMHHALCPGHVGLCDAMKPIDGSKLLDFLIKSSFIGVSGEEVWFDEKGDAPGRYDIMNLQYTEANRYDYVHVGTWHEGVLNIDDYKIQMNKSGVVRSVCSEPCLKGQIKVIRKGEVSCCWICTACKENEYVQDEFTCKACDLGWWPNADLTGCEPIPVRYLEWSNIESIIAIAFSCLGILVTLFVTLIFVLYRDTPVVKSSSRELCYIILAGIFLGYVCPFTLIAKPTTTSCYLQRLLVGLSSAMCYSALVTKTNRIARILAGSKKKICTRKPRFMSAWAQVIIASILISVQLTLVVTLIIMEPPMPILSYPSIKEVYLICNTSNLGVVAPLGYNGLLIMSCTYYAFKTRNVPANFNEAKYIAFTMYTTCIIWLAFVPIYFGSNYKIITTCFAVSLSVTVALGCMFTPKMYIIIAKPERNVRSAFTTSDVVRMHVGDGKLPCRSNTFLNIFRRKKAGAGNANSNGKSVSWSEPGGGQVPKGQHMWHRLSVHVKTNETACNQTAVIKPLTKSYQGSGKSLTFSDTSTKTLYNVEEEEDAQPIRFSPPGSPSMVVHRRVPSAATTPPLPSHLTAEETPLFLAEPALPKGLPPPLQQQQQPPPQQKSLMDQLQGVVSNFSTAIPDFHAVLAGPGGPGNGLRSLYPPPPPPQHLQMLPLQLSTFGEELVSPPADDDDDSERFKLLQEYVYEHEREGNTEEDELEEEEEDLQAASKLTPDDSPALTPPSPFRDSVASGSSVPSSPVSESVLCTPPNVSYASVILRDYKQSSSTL
Chain of Metabotropic glutamate receptor 5 (P41594 whole entry): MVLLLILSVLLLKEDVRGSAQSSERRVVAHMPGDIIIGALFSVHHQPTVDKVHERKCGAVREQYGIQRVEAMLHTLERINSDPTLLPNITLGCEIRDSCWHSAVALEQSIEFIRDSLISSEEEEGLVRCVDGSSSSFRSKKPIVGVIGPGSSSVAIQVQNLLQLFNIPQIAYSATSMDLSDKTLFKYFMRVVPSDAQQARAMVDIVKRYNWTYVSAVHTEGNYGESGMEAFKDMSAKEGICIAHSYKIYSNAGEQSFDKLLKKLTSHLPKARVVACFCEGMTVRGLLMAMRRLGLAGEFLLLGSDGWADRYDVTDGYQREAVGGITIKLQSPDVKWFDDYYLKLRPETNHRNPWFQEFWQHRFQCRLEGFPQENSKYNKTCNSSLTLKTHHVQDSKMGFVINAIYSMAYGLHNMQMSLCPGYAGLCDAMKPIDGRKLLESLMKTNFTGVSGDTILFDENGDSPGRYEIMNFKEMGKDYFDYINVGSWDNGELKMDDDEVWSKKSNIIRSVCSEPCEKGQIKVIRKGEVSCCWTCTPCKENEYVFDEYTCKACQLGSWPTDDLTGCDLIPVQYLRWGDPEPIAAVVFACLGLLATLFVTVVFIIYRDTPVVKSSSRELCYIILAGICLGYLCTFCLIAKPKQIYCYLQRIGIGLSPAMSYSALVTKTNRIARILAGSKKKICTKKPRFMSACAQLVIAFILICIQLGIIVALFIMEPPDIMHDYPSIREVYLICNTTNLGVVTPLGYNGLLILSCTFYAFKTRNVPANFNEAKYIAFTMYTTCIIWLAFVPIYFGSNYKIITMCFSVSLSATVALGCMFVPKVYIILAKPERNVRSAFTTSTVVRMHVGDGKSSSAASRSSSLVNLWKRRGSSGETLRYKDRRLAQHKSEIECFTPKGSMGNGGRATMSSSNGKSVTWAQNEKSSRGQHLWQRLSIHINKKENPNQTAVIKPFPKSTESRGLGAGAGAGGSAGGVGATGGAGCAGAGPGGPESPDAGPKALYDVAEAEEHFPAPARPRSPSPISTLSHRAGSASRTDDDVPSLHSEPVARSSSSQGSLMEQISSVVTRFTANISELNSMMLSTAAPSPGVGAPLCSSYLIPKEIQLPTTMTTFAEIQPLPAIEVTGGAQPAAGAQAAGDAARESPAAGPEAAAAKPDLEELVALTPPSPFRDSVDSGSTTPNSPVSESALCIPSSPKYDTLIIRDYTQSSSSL

Ki [1]	Ki [2]	Ki [3]	Ki [4]	EC50 [5]	EC50 [6]	EC50 [7]	EC50 [8]	Structure (SMILES)
> 1000 µM	> 1000 µM	55 µM	232 µM					N[C@H](C(=O)O)C12C3C4C1C1C2C3C41C(=O)O (stereo partly drawn)
				9 µM	22 µM	36 µM	20 µM	CN[C@H](CC(=O)O)C(=O)O [N-METHYL-D-ASPARTIC ACID (NMDA)]
